“Also recorded” adds a separate entry of the source.
Legend:
smooth muscle cells = assay: Smooth muscle cell migration after wounding of monolayers; format: cell-based, bovine; details: peptides 2 μg/ml
Method: Smooth muscle cells were isolated from bovine aorta as described previously from rat aorta (Majack et al., 1984) and were maintained in Dulbecco's Modified Eagles medium (DME) supplemented with 10% fetal calf serum (FCS) and 20 mM HEPES buffer, pH 7.2 at 37° C. and 5% CO2 in air. All experiments were performed using defined medium [DME with 20 mM HEPES buffer, pH 7.2, 0.5 U/ml insulin (beef and pork zinc suspension, Novo Laboratories Ltd., Willowdale, Ontario) and 4 μg/ml transferrin (Sigma Chemical Co., St. Louis, Mo.)], and the culture medium was replaced 24 hours before filming. Wounding injury to confluent monolayers consisted of removal of half the monolayer using a cell lifter followed by the addition of fresh defined medium in the presence of either RHAMM peptide aa401-411 or the scrambled peptide of the same domain as described above.
The HA-binding region of RHAMM consists of two 10 amino acid domains located close to the carboxy terminus of the protein (Yang, 1993). A peptide mimicking Domain 1 (amino acids 401-411)—YKQKIKHVVKLK—and a scrambled peptide consisting of the same amino acids arranged in a random manner—YLKQKKVKKHIV—were synthesized. Both peptides were used at a final concentration of 2 μg/ml in locomotion assays.
Injured cell monolayers were monitored for motility using an IM 35 Zeiss inverted microscope to which a video camera (Hamamatsu CCD, Inc., Japan) was attached. The cells were maintained at 37° C. using a heated platform (TRZ 3700, Zeiss, Germany). Cell locomotion was followed by using image analysis (Image 1, Universal Imaging Corp., Westchester, Pa. This program allows quantification of nuclear displacement from a sequence of digitalized images. The motility of thirty cells in each experiment was followed for a period of 24 hours with mean velocities calculated every hour.

macrophage cell line S1 = assay: Macrophage chemotaxis to endotoxin-activated mouse serum, S1; format: cell-based
Method: (§1) The macrophage cell lines S1 and WEHI-3 (Branch et al., 1989) were used to analyze the effect of antibodies and synthetic peptide on macrophage chemotaxis to endotoxin-activated mouse serum (AS). These cells lines were also maintained in DME with 10% FCS and 20 mM Hepes buffer, pH 7.2 at 37° C. and 5% CO2 in air.
(§2) Chemotaxis was stimulated using either bacterial endotoxin-activated mouse serum (AS), prepared according to Stevenson et al. (1981) for macrophages and macrophage cell lines, or 100 ng/ml interleukin-8 (IL-8) for neutrophils. Heat-inactivated serum (56° C. for 20 mintes) or medium served as negative controls respectively. The chemotactic assay used was a colorometric assay described in Shi et al., (1993). Briefly, a 96-well chemotaxis chamber with a lower recess large enough to hold a microtiter plate (Neuro Probe, stock#MBA96) and a 5 μm framed filter (Neuro Probe, stock#PFD5/A) were used. The microtiter plate was filled with chemoattractants and controls and placed in the recess of the chemotaxis chamber. […] The number of displaced cells was quantified by the addition of 3-(4.5-dimethylthiazol-2-yl)-2,5-[…] tetrazolium bromide (MTT) to a final concentration of 250 μg/ml that was incubated at 37° C. for 4 hours. […] The plate was analysed within 2 hours on a microtiter plate ELISA reader with a filter of 540 nm. […]

[1] = test system: human breast cancer cell lines; assay: Locomotion of human breast cancer cell lines (timelapse image analysis); format: cell-based; details: R3 5 μg/ml; peptide I 2 μg/ml; P<0.001
Method: Cells were cultured as described above. For cell locomotion studies, aliquots of 10^5 cells were added to a 25 cm^2 tissue culture flask (Corning). After 24 hours of growth, cells were washed with calcium and magnesium free Hank's balanced salt solution (HBSS) (Gibco BRL), the defined serum-free media (DM), DMEM supplied with 4.0 μg/ml transferrin (Human, Gibco BRL), 0.5 U/ml Lente insulin (beef and pork, Connaught Novo Ltd., Willowdale, Ontario) and 20 mM Hepes, PH 7.2, was added to the flasks. Twelve hours later, cell locomotion was recorded by using a computerized timelapse image analysis system (Image-1, Universal Image Corporation, Westchester, Pa.) which quantitates nuclear displacement Antibody—R3 (5 μg/ml), peptide I (2 μg/ml), control rabbit IgG (5 μg/ml) or scrambled peptide I (2 μg/ml) were added to media 20 min before the beginning of filming. Images were taken with a Zeiss inverted microscope (model IM35, Zeiss) using a 10× objective every 30 min for 3 hours. A minimum of 30 cells were tracked in each above experimental condition; experiments done in triplicate.

Human neutrophils = assay: Neutrophil chemotaxis to IL-8 (modified Boyden chamber); format: cell-based; details: 100 ng/ml IL-8
Method: Human neutrophils were obtained from peripheral blood samples of normal volunteers and mixed in ACD solution (0.085 M trisodium citrate, 0.065 M citric acid, 2% dextrose) to prevent clotting. Five percent dextran was added and the separated plasma and white blood cells were removed. The cells were washed twice in PBS, pH 7.2 and a Ficoll gradient was used to separate the lymphocytes. The isolated neutrophils were then washed and resuspended in PBS. Red cells were lysed by brief exposure to hypotonic PBS.
as §2, with “(1993).” for “(1993). Briefly, a 96-well chemotaxis chamber with a lower recess large enough to hold a microtiter plate (Neuro Probe, stock#MBA96) and a 5 μm framed filter (Neuro Probe, stock#PFD5/A) were used. The microtiter plate was filled with chemoattractants and controls and placed in the recess of the chemotaxis chamber.”

[2] = test system: macrophage cell line WEHI-3; assay: Macrophage chemotaxis to endotoxin-activated mouse serum, WEHI-3; format: cell-based
Method: as §1, §2

With YKQKIKHVVKLK [peptide aa^401-411] the “effect on rate of translocation of smooth muscle cells after wounding” value (smooth muscle cells) was “significantly reduced the rate of translocation”, the “effect on rate of translocation of smooth muscle cells after wounding” value (smooth muscle cells; listed as Peptide aa^401-411) was “significantly inhibited the rate of translocation” and the “effect on chemotaxis to endotoxin-activated mouse serum” value (macrophage cell line S1) was “inhibited”. The “effect on locomotion of all cell lines” value [1] was “reduced significantly”, the “effect on neutrophil chemotaxis to IL-8” value (Human neutrophils) was “completely inhibited; also recorded: significantly inhibited” and the “effect on chemotaxis to endotoxin-activated mouse serum” value [2] was “inhibited”.

Source: US6429291B1, “Hyaluronan receptor protein” (priority 1994, dated 2002)
